# Data as given in patent US9708331B2, “Metabotrophic glutamate receptor 5 modulators and methods of use thereof” (SUNOVION PHARMACEUTICALS INC., priority 2011, dated 2017).
# Biological target: mGluR5 (Homo sapiens, UniProt P41594)
# Assay: mGluR5 PAM EC50 (positive allosteric modulator potency)
# Type: cell-based
# Chain of mGluR5 (P41594 21-1212): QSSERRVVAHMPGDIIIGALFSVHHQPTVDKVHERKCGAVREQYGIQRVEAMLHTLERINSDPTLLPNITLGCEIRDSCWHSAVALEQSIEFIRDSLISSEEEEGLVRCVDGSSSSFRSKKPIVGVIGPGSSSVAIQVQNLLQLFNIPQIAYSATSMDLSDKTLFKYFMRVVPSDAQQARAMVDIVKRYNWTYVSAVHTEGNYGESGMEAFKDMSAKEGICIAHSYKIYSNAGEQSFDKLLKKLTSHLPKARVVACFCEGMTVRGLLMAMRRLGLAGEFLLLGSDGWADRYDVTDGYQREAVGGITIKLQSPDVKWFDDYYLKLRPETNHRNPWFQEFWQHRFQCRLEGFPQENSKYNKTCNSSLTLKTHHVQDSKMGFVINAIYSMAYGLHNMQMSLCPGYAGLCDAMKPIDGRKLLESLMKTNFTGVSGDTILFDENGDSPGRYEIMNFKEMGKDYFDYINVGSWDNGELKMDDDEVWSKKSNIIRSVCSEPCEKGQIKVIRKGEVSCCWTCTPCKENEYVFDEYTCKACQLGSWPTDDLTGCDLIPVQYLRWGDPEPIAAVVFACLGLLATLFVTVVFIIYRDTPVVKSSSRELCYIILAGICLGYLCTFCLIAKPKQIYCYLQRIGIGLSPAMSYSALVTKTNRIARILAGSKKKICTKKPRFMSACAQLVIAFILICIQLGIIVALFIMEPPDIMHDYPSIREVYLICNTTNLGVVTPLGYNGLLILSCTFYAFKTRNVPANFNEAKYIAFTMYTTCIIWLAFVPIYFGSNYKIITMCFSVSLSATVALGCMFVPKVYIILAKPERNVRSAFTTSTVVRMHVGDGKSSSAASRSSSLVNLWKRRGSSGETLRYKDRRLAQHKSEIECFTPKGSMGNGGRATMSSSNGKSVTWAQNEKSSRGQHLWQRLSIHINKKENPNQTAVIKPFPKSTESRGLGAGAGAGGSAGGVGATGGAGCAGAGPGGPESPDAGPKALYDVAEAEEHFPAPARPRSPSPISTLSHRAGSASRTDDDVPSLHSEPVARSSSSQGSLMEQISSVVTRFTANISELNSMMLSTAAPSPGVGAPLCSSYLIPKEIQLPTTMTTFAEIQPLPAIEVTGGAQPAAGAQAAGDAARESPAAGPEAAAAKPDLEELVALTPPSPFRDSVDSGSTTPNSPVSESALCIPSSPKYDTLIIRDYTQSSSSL
row,EC50,Structure (SMILES)
1,30 to 100 nM,"CC1(C)CCc2nc3cc(C#Cc4ncc(F)cn4)ccc3c(=O)n2C1 [Example 2.54, 3-((5-fluoropyrimidin-2-yl)ethynyl)-8,8-dimethyl-8,9-dihydro-6H-pyrido[2,1-b]quinazolin-11(7H)-one]"
2,10 to 30 nM,"CC1(C)CCc2nc3cc(C#Cc4ccccc4F)ccc3c(=O)n2C1 [Example 2.73, 3-((2-fluorophenyl)ethynyl)-8,8-dimethyl-8,9-dihydro-6H-pyrido[2,1-b]quinazolin-11(7H)-one]"
3,10 to 30 nM,"CC1(C)CCc2nc3cc(C#Cc4ccc(F)cc4)ccc3c(=O)n2C1 [Example 2.75, 3-((4-fluorophenyl)ethynyl)-8,8-dimethyl-8,9-dihydro-6H-pyrido[2,1-b]quinazolin-11(7H)-one]"
4,< 10 nM,"CC1(C)CCc2nc3cc(C#Cc4ncccc4F)ccc3c(=O)n2C1 [Example 2.86, 3-((3-fluoropyridin-2-yl)ethynyl)-8,8-dimethyl-8,9-dihydro-6H-pyrido[2,1-b]quinazolin-11(7H)-one]"
5,< 10 nM,"CC1(C)CCc2nc3cc(C#Cc4cccnc4F)ccc3c(=O)n2C1 [Example 2.87, 3-((2-fluoropyridin-3-yl)ethynyl)-8,8-dimethyl-8,9-dihydro-6H-pyrido[2,1-b]quinazolin-11(7H)-one]"
6,< 10 nM,"CC1(C)CCc2nc3cc(C#Cc4ccc(F)nc4)ccc3c(=O)n2C1 [Example 2.88, 3-((6-fluoropyridin-3-yl)ethynyl)-8,8-dimethyl-8,9-dihydro-6H-pyrido[2,1-b]quinazolin-11(7H)-one]"
7,< 10 nM,"CC1(C)CCc2nc3cc(C#Cc4cncc(F)c4)ccc3c(=O)n2C1 [Example 2.89, 3-((5-fluoropyridin-3-yl)ethynyl)-8,8-dimethyl-8,9-dihydro-6H-pyrido[2,1-b]quinazolin-11(7H)-one]"
8,< 10 nM,"CC1(C)CCc2nc3cc(C#Cc4cnccc4F)ccc3c(=O)n2C1 [Example 2.90, 3-((4-fluoropyridin-3-yl)ethynyl)-8,8-dimethyl-8,9-dihydro-6H-pyrido[2,1-b]quinazolin-11(7H)-one]"

# The remaining lines, values behind:
row,Structure (SMILES),EC50
1,"CC1(C)CCn2c(nc3cc(C#Cc4ccccn4)c(F)cc3c2=O)C1 [Example 2.31a, 2-fluoro-7,7-dimethyl-3-(pyridin-2-ylethynyl)-8,9-dihydro-6H-pyrido[2,1-b]quinazolin-11(7H)-one]",30 to 100 nM
2,"C=CC1(F)CCc2nc3cc(C#Cc4ccccn4)ccc3c(=O)n2C1 (stereo not drawn) [Example 2.38, 8-fluoro-3-(pyridin-2-ylethynyl)-8-vinyl-8,9-dihydro-6H-pyrido[2,1-b]quinazolin-11(7H)-one]",10 to 30 nM
3,"CC1(C)CCc2nc3cc(C#Cc4ccc(C#N)cn4)ccc3c(=O)n2C1 [Example 2.39, 6-((8,8-dimethyl-11-oxo-7,8,9,11-tetrahydro-6H-pyrido[2,1-b]quinazolin-3-yl)ethynyl)nicotinonitrile]",10 to 30 nM
4,"COc1ccc(C#Cc2ccc3c(=O)n4c(nc3c2)CCC(C)(C)C4)nc1 [Example 2.40, 3-((5-methoxypyridin-2-yl)ethynyl)-8,8-dimethyl-8,9-dihydro-6H-pyrido[2,1-b]quinazolin-11(7H)-one]",30 to 100 nM
5,"Cc1cc(C#Cc2ccc3c(=O)n4c(nc3c2)CCC(C)(C)C4)ccn1 [Example 2.46, 8,8-dimethyl-3-((2-methylpyridin-4-yl)ethynyl)-8,9-dihydro-6H-pyrido[2,1-d]quinazolin-11(7H)-one]",10 to 30 nM
6,"Cc1cnc(C#Cc2ccc3c(=O)n4c(nc3c2)CCC(C)(C)C4)s1 [Example 2.50, 8,8-dimethyl-3-((5-methylthiazol-2-yl)ethynyl)-8,9-dihydro-6H-pyrido[2,1-b]quinazolin-11(7H)-one]",< 10 nM
7,"Cc1cc(C#Cc2ccc3c(=O)n4c(nc3c2)CCC(C)(C)C4)sn1 [Example 2.51, 8,8-dimethyl-3-((3-methylisothiazol-5-yl)ethynyl)-8,9-dihydro-6H-pyrido[2,1-b]quinazolin-11(7H)-one]",< 10 nM
